# Data as given in US20230416258A1, “BENZ[…], AND PREPARATION METHOD THEREFOR AND USE THEREOF” (CHINA PHARMACEUTICAL UNIVERSITY, priority 2020, published 2023).
# Tested on: KM mice
# Experiment: Test for drug-induced disappearance of righting reflex in mice
# Format: in vivo
# Conditions: 30 mg/kg, single rapid bolus via tail vein
# Excerpt: In anesthetic drug experiments, latency generally refers to the time from the start of administration to the loss of consciousness of the subject. The shorter latency is preferred, indicating a rapid onset of action after administration. The duration of anesthesia generally refers to the duration of time from the loss of consciousness to the restoration of consciousness of the subject. The duration of the drug will vary from animal model to animal species. Too long anesthesia may produce adverse cardiovascular and respiratory responses, such as adverse neurological effects to the subject, including sleepiness and dizziness; meanwhile, too short duration of anesthesia may affect the anesthesia effect, causing problems such as increase of anesthesia dosage during the operation.
# KM mice (female, 18-25 g) were randomly grouped and subjected to a single administration by rapid bolus via the tail vein. The latency and duration of disappearance of righting reflex in the mice were recorded.
Compound,Duration [min],Latency [min]
"CCOC(=O)CC[C@@H]1N=C(c2ccccc2Cl)c2cc([N+](=O)[O-])ccc2-n2c(SC)nnc21 [Compound 44, ethyl (S)-3-(8-nitro-6-(2-chlorophenyl)-1-(methylthio)-4H-benzo[f][1,2,4]triazolo[4,3-a][1,4]diazepin-4-yl)propionate]",16.27,1.28
"COC(=O)CC[C@@H]1N=C(c2ccccc2F)c2cc(Cl)ccc2-n2c(SCC3CC3)nnc21 [Compound 45, methyl (S)-3-(8-chloro-1-((cyclopropylmethyl)thio)-6-(2-fluorophenyl)-4H-benzo[f][1,2,4]triazolo[4,3-a][1,4]diazepin-4-yl)propionate]",11.37,0.65
"COC(=O)CC[C@@H]1N=C(c2ccccc2F)c2cc(Br)ccc2-n2c(SCC3CC3)nnc21 [Compound 46, methyl (S)-3-(8-bromo-1-((cyclopropylmethyl)thio)-6-(2-fluorophenyl)-4H-benzo[f][1,2,4]triazolo[4,3-a][1,4]diazepin-4-yl)propionate]",10.83,0.69
"C#CCSc1nnc2n1-c1ccc(Br)cc1C(c1ccccc1F)=N[C@H]2CCC(=O)OC [Compound 49, methyl (S)-3-(8-bromo-6-(2-fluorophenyl)-1-(prop-2-yn-1-ylthio)-4H-benzo[f][1,2,4]triazolo[4,3-a][1,4]diazepin-4-yl)propionate]",9.65,0.73
"C#CCSc1nnc2n1-c1ccc([N+](=O)[O-])cc1C(c1ccccc1F)=N[C@H]2CCC(=O)OC [Compound 50, methyl (S)-3-(8-nitro-6-(2-fluorophenyl)-1-(prop-2-yn-1-ylthio)-4H-benzo[f][1,2,4]triazolo[4,3-a][1,4]diazepin-4-yl)propionate]",15.27,0.93
"CCN(CC)CCSc1nnc2n1-c1ccc(Cl)cc1C(c1ccccc1F)=N[C@H]2CCC(=O)OC [Compound 54, methyl (S)-3-(8-chloro-1-((2-(diethylamino)ethyl)thio)-6-(2-fluorophenyl)-4H-benzo[f][1,2,4]triazolo[4,3-a][1,4]diazepin-4-yl)propionate]",6.83,0.24
"CCN(CC)CCSc1nnc2n1-c1ccc(Br)cc1C(c1ccccc1F)=N[C@H]2CCC(=O)OC [Compound 55, methyl (S)-3-(8-bromo-1-((2-(diethylamino)ethyl)thio)-6-(2-fluorophenyl)-4H-benzo[f][1,2,4]triazolo[4,3-a][1,4]diazepin-4-yl)propionate]",13.84,0.74
"CCN(CC)CCSc1nnc2n1-c1ccc([N+](=O)[O-])cc1C(c1ccccc1F)=N[C@H]2CCC(=O)OC [Compound 56, methyl (S)-3-(8-nitro-1-((2-(diethylamino)ethyl)thio)-6-(2-fluorophenyl)-4H-benzo[f][1,2,4]triazolo[4,3-a][1,4]diazepin-4-yl)propionate]",10.22,0.92
"COC(=O)CC[C@@H]1N=C(c2ccccc2F)c2cc(Br)ccc2-n2c(SCCCN(C)C)nnc21 [Compound 58, methyl (S)-3-(8-bromo-1-((3-(dimethylamino)propyl)thio)-6-(2-fluorophenyl)-4H-benzo[f][1,2,4]triazolo[4,3-a][1,4]diazepin-4-yl)propionate]",7.76,0.25
"COC(=O)CC[C@@H]1N=C(c2ccccc2F)c2cc(Cl)ccc2-n2c(SCCN3CCN(C)CC3)nnc21 [Compound 60, methyl (S)-3-(8-chloro-6-(2-fluorophenyl)-1-((2-(4-methylpiperazin-1-yl)ethyl)thio)-4H-benzo[f][1,2,4]triazolo[4,3-a][1,4]diazepin-4-yl)propionate]",12.27,0.49
"COC(=O)CC[C@@H]1N=C(c2ccccc2F)c2cc(Br)ccc2-n2c(SCCN3CCN(C)CC3)nnc21 [Compound 61, methyl (S)-3-(8-bromo-6-(2-fluorophenyl)-1-((2-(4-methylpiperazin-1-yl)ethyl)thio)-4H-benzo[f][1,2,4]triazolo[4,3-a][1,4]diazepin-4-yl)propionate]",12.28,0.82
"COC(=O)CC[C@@H]1N=C(c2ccccc2F)c2cc(Cl)ccc2-n2c(SC3CCN(C)CC3)nnc21 [Compound 63, methyl (S)-3-(8-chloro-6-(2-fluorophenyl)-1-((1-methylpiperidin-4-yl)thio)-4H-benzo[f][1,2,4]triazolo[4,3-a][1,4]diazepin-4-yl)propionate]",15.25,1.23
"COC(=O)CC[C@@H]1N=C(c2ccccc2F)c2cc([N+](=O)[O-])ccc2-n2c(SC3CCN(C)CC3)nnc21 [Compound 65, methyl (S)-3-(8-nitro-6-(2-fluorophenyl)-1-((1-methylpiperidin-4-yl)thio)-4H-benzo[f][1,2,4]triazolo[4,3-a][1,4]diazepin-4-yl)propionate]",17.25,1.74
"COC(=O)CC[C@@H]1N=C(c2ccccc2F)c2cc(Br)ccc2-n2c(SCCCN3CCN(CCO)CC3)nnc21 [Compound 67, methyl (S)-3-(8-bromo-6-(2-fluorophenyl)-1-((3-(4-(2-hydroxyethyl)piperazin-1-yl)propyl)thio)-4H-benzo[f][1,2,4]triazolo[4,3-a][1,4]diazepin-4-yl)propionate]",11.37,0.84
"COC(=O)CC[C@@H]1N=C(c2ccccc2F)c2cc(Cl)ccc2-n2c(SCN3CCOCC3)nnc21 [Compound 69, methyl (S)-3-(8-chloro-6-(2-fluorophenyl)-1-((morpholinomethyl)thio)-4H-benzo[f][1,2,4]triazolo[4,3-a][1,4]diazepin-4-yl)propionate]",21.61,0.90
"COC(=O)CC[C@@H]1N=C(c2ccccc2F)c2cc(Br)ccc2-n2c(SCN3CCOCC3)nnc21 [Compound 70, methyl (S)-3-(8-bromo-6-(2-fluorophenyl)-1-((morpholinomethyl)thio)-4H-benzo[f][1,2,4]triazolo[4,3-a][1,4]diazepin-4-yl)propionate]",18.61,1.01

# Same assay, conditions: 60 mg/kg, single rapid bolus via tail vein
Compound,Duration [min],Latency [min]
"COC(=O)CC[C@@H]1N=C(c2ccccc2F)c2cc([N+](=O)[O-])ccc2-n2c(SCC3CC3)nnc21 [Compound 47, methyl (S)-3-(8-nitro-1-((cyclopropylmethyl)thio)-6-(2-fluorophenyl)-4H-benzo[f][1,2,4]triazolo[4,3-a][1,4]diazepin-4-yl)propionate]",10.52,0.82
"C#CCSc1nnc2n1-c1ccc(Cl)cc1C(c1ccccc1F)=N[C@H]2CCC(=O)OC [Compound 48, methyl (S)-3-(8-chloro-6-(2-fluorophenyl)-1-(prop-2-yn-1-ylthio)-4H-benzo[f][1,2,4]triazolo[4,3-a][1,4]diazepin-4-yl)propionate]",8.54,1.25
"COC(=O)CC[C@@H]1N=C(c2ccccc2F)c2cc(Cl)ccc2-n2c(SCCCN(C)C)nnc21 [Compound 57, methyl (S)-3-(8-chloro-1-((3-(dimethylamino)propyl)thio)-6-(2-fluorophenyl)-4H-benzo[f][1,2,4]triazolo[4,3-a][1,4]diazepin-4-yl)propionate]",5.89,0.31
"COC(=O)CC[C@@H]1N=C(c2ccccc2F)c2cc(Br)ccc2-n2c(SCCCN(C)C)nnc21 [Compound 58, methyl (S)-3-(8-bromo-1-((3-(dimethylamino)propyl)thio)-6-(2-fluorophenyl)-4H-benzo[f][1,2,4]triazolo[4,3-a][1,4]diazepin-4-yl)propionate]",11.17,0.33
"COC(=O)CC[C@@H]1N=C(c2ccccc2F)c2cc([N+](=O)[O-])ccc2-n2c(SCCN3CCN(C)CC3)nnc21 [Compound 62, methyl (S)-3-(8-nitro-6-(2-fluorophenyl)-1-((2-(4-methylpiperazin-1-yl)ethyl)thio)-4H-benzo[f][1,2,4]triazolo[4,3-a][1,4]diazepin-4-yl)propionate]",10.05,0.86
"COC(=O)CC[C@@H]1N=C(c2ccccc2F)c2cc(Br)ccc2-n2c(SC3CCN(C)CC3)nnc21 [Compound 64, methyl (S)-3-(8-bromo-6-(2-fluorophenyl)-1-((1-methylpiperidin-4-yl)thio)-4H-benzo[f][1,2,4]triazolo[4,3-a][1,4]diazepin-4-yl)propionate]",14.27,0.99
"COC(=O)CC[C@@H]1N=C(c2ccccc2F)c2cc(Cl)ccc2-n2c(SCCCN3CCN(CCO)CC3)nnc21 [Compound 66, methyl (S)-3-(8-chloro-6-(2-fluorophenyl)-1-((3-(4-(2-hydroxyethyl)piperazin-1-yl)propyl)thio)-4H-benzo[f][1,2,4]triazolo[4,3-a][1,4]diazepin-4-yl)propionate]",4.27,0.89
"COC(=O)CC[C@@H]1N=C(c2ccccc2F)c2cc([N+](=O)[O-])ccc2-n2c(SCCCN3CCN(CCO)CC3)nnc21 [Compound 68, methyl (S)-3-(8-nitro-6-(2-fluorophenyl)-1-((3-(4-(2-hydroxyethyl)piperazin-1-yl)propyl)thio)-4H-benzo[f][1,2,4]triazolo[4,3-a][1,4]diazepin-4-yl)propionate]",15.02,0.68
"COC(=O)CC[C@@H]1N=C(c2ccccc2F)c2cc([N+](=O)[O-])ccc2-n2c(SCN3CCOCC3)nnc21 [Compound 71, methyl (S)-3-(8-nitro-6-(2-fluorophenyl)-1-((morpholinomethyl)thio)-4H-benzo[f][1,2,4]triazolo[4,3-a][1,4]diazepin-4-yl)propionate]",12.10,0.56
